Converted amounts (≈) assume the structure as drawn. Where two headings read alike, the source gives them in different places.
Assays:
S. aureus ATCC 29213 = test: NCCLS broth microdilution MIC; type: cell-based, Staphylococcus aureus; details: for MIC: Staphylococcus aureus
Description: (§1) Compounds according to this invention were screened for their in vitro activities against selected species of bacteria and fungi. The minimal inhibition concentration (MIC) of these compounds was determined using the National Committee for Clinical Laboratory Standards (NCCLS) broth microdilution assay in microtiter plates, as set forth in: (1) the guidelines of the National Committee for Clinical Laboratory Standards (NCCLS) Document M7-A4 (NCCLS, 1997); (2) the guidelines of the National Committee for Clinical Laboratory Standards (NCCLS) Document M11-A4 (NCCLS, 1997); and (3) the guidelines and reference method of the National Committee for Clinical Laboratory Standards (NCCLS) Document M27-T (NCCLS, 1995). For antifungal essays, the method recommended in Murray, P R., 1995 Manual of Clinical Microbiology (ASM Press, Washington, D.C.), was employed. […]

E. faecalis ATCC 29212 = test: NCCLS broth microdilution MIC; type: cell-based, Enterococcus faecalis; details: for MIC: Enterococcus faecalis
Description: as §1

C. albicans ATCC 38247 = test: NCCLS broth microdilution MIC (antifungal); type: cell-based; details: E = C. albicans ATCC 38247
Description: as §1

S. pneumoniae ATCC 49619 = test: NCCLS broth microdilution MIC; type: cell-based, Streptococcus pneumoniae; details: for MIC: Streptococcus pneumoniae
Description: as §1

B. cereus ATCC 11778 = test: NCCLS broth microdilution MIC; type: cell-based, Bacillus cereus; details: for MIC: Bacillus cereus
Description: as §1

E. coli ATCC 25922 = test: NCCLS broth microdilution MIC; type: cell-based; details: for MIC: Escherichia coli
Description: as §1

[1] = ATCC29212, B = E. faecalis ATCC 29212, read-out: Minimum Inhibitory Concentration (MIC)
[2] = ATCC11778, C = B. cereus ATCC 11778, read-out: Minimum Inhibitory Concentration (MIC)
[3] = ATCC25922, D = E. coli ATCC 25922, read-out: Minimum Inhibitory Concentration (MIC)
[4] = ATCC49619, F = S. pneumoniae ATCC 49619, read-out: Minimum Inhibitory Concentration (MIC)

| SMILES | Minimum Inhibitory Concentration (MIC) (S. aureus ATCC 29213; A = S. aureus ATCC 29213) | Minimum Inhibitory Concentration (MIC) (E. faecalis ATCC 29212; B = E. faecalis ATCC 29212) | Minimum Inhibitory Concentration (MIC) (C. albicans ATCC 38247) | Minimum Inhibitory Concentration (MIC) (S. pneumoniae ATCC 49619; F = S. pneumoniae ATCC 49619) | Minimum Inhibitory Concentration (MIC) (B. cereus ATCC 11778; C = B. cereus ATCC 11778) | Minimum Inhibitory Concentration (MIC) (E. coli ATCC 25922; D = E. coli ATCC 25922) | also measured |
| --- | --- | --- | --- | --- | --- | --- | --- |
| Cn1cc(NC(=O)c2cc(NC(=O)c3cc(NC(=O)c4sccc4F)cs3)cn2C)cc1C(=O)NCCN1CCOCC1 [Ig-5] | +++ (+++ = MIC ≦4) | +++ (+++ = MIC ≦4) | >32 µg/mL | +++ (+++ = MIC ≦4) |  |  |  |
| CN(C)CCN(C)C(=O)CCNC(=O)c1cc(NC(=O)c2cc(NC(=O)CCNC(=O)c3cc(NC(=O)c4cc(NC(=O)c5cc(Br)c(Br)s5)cn4C)cn3C)cn2C)cn1C [Id-10] | >32 µg/mL | >32 µg/mL | >32 µg/mL | +++ (+++ = MIC ≦4) | >32 µg/mL | >32 µg/mL |  |
| CC1COc2c(N3CCN(C)CC3)c(F)cc3c(=O)c(C(=O)O)cn1c23 (stereo not shown) [Ofloxacin, reference compound] |  |  |  |  |  |  | MIC (S. aureus ATCC 29213; ATCC29213, A = S. aureus ATCC 29213, read-out: Minimum Inhibitory Concentration (MIC)): < 4 µg/mL; MIC (E. faecalis ATCC 29212; [1]): 4 to 12 µg/mL (≈ 11.1 to 33.2 µM); MIC (B. cereus ATCC 11778; [2]): < 4 µg/mL; MIC (E. coli ATCC 25922; [3]): < 4 µg/mL; MIC (S. pneumoniae ATCC 49619; [4]): < 4 µg/mL |
| Cn1cc(NC(=O)c2cc(NC(=O)c3cc(NC(=O)c4sccc4Br)cn3C)cn2C)cc1C(=O)NCCN1CCOCC1 [Ie-2] | +++ (+++ = MIC ≦4) | +++ (+++ = MIC ≦4) | >32 µg/mL | +++ (+++ = MIC ≦4) |  |  |  |
| Cn1cc(NC(=O)c2cc(NC(=O)c3nc(NC(=O)c4scc(Br)c4Cl)cn3C)cn2C)cc1C(=O)NCCN1CCSCC1 [Ig-10] |  | +++ (+++ = MIC ≦4) | >32 µg/mL | +++ (+++ = MIC ≦4) | +++ (+++ = MIC ≦4) | >32 µg/mL |  |
| CC(C)S(=O)(=O)c1csc(C(=O)Nc2csc(C(=O)Nc3cc(C(=O)Nc4cc(C(=O)NCCN5CCOCC5)n(C)c4)n(C)c3)c2)c1Cl [Ig-4] | +++ (+++ = MIC ≦4) | +++ (+++ = MIC ≦4) | >32 µg/mL | +++ (+++ = MIC ≦4) |  |  |  |
| CN(C)CCCNC(=O)CCNC(=O)c1cc(NC(=O)c2cc(NC(=O)CCNC(=O)c3cc(NC(=O)c4ccc(Cl)s4)cn3C)cn2C)cn1C [Id-29] | >32 µg/mL | >32 µg/mL | >32 µg/mL | >32 µg/mL |  |  |  |
| Cn1cc(NC(=O)c2cc(NC(=O)CNC(=N)N)cn2C)cc1C(=O)NCCC(=N)N [Netropsin, netropsin, reference compound] |  |  |  |  |  |  | MIC (S. aureus ATCC 29213; ATCC29213, read-out: Minimum Inhibitory Concentration (MIC)): < 4 µg/mL; MIC (E. faecalis ATCC 29212; ATCC29212, read-out: Minimum Inhibitory Concentration (MIC)): < 4 µg/mL; MIC (B. cereus ATCC 11778; ATCC11778, read-out: Minimum Inhibitory Concentration (MIC)): < 4 µg/mL; MIC (E. coli ATCC 25922; ATCC25922, read-out: Minimum Inhibitory Concentration (MIC)): < 4 µg/mL; MIC (S. pneumoniae ATCC 49619; ATCC49619, read-out: Minimum Inhibitory Concentration (MIC)): < 4 µg/mL |
| CN(C)CCCNC(=O)CCNC(=O)c1cc(NC(=O)c2cc(NC(=O)CCNC(=O)c3cc(NC(=O)c4cc(NC(=O)c5sc(Br)c(Br)c5Cl)cn4C)cn3C)cn2C)cn1C [Id-26] | >32 µg/mL | >32 µg/mL | >32 µg/mL | + (+ = MIC from 12 to 32, inclusive) |  |  |  |
| Cn1cc(NC(=O)c2cc(NC(=O)c3cc(NC(=O)c4sccc4Cl)cn3C)cn2C)cc1C(=O)NCCN1CCC(F)CC1 [Ie-13] |  | +++ (+++ = MIC ≦4) | >32 µg/mL | +++ (+++ = MIC ≦4) | +++ (+++ = MIC ≦4) | >32 µg/mL |  |
| Cn1cc(NC(=O)c2cc(NC(=O)c3ccc(NC(=O)c4nc(NC(=O)c5sccc5Cl)cn4C)cc3)cn2C)cc1C(=O)NCCN1CCC(F)(F)CC1 [Ih-2] |  |  |  |  |  |  | MIC (E. faecalis ATCC 29212; [1]): < 4 µg/mL; MIC (B. cereus ATCC 11778; [2]): > 32 µg/mL; MIC (E. coli ATCC 25922; [3]): > 32 µg/mL; MIC (C. albicans ATCC 38247; Candida albicans, ATCC38247, read-out: Minimum Inhibitory Concentration (MIC)): > 32 µg/mL; MIC (S. pneumoniae ATCC 49619; [4]): < 4 µg/mL |
| Cn1cc(NC(=O)c2cc(NC(=O)c3cc(NC(=O)c4cc(Br)cs4)cn3C)cn2C)cc1C(=O)NCCN1CCOCC1 [Ie-3] | ++ (++ = MIC between 4 and 12) | >32 µg/mL | >32 µg/mL | +++ (+++ = MIC ≦4) |  |  |  |
| CN(C)CCCNC(=O)CCNC(=O)c1cc(NC(=O)c2cc(NC(=O)CCNC(=O)c3cc(NC(=O)c4cscc4Cl)cn3C)cn2C)cn1C [Id-28] | +++ (+++ = MIC ≦4) | + (+ = MIC from 12 to 32, inclusive) | >32 µg/mL | +++ (+++ = MIC ≦4) |  |  |  |
| Cn1cc(NC(=O)c2cc(NC(=O)c3cc(NC(=O)c4sccc4Cl)cn3CCCO)cn2C)cc1C(=O)NCCC(=O)NCCN1CCOCC1 [Ig-2] | >32 µg/mL | >32 µg/mL | >32 µg/mL | >32 µg/mL |  |  |  |

Further lines, with some results ahead:

| Minimum Inhibitory Concentration (MIC) (S. aureus ATCC 29213; A = S. aureus ATCC 29213) | Minimum Inhibitory Concentration (MIC) (E. faecalis ATCC 29212; B = E. faecalis ATCC 29212) | Minimum Inhibitory Concentration (MIC) (C. albicans ATCC 38247) | Minimum Inhibitory Concentration (MIC) (S. pneumoniae ATCC 49619; F = S. pneumoniae ATCC 49619) | Minimum Inhibitory Concentration (MIC) (B. cereus ATCC 11778; C = B. cereus ATCC 11778) | Minimum Inhibitory Concentration (MIC) (E. coli ATCC 25922; D = E. coli ATCC 25922) | SMILES | also measured |
| --- | --- | --- | --- | --- | --- | --- | --- |
| +++ (+++ = MIC ≦4) | +++ (+++ = MIC ≦4) | >32 µg/mL | ++ (++ = MIC between 4 and 12) |  |  | Cn1cc(NC(=O)c2cc(NC(=O)c3cc(NC(=O)c4sccc4Cl)cs3)cn2C)cc1C(=O)NCCN1CCOCC1 [Ig-1] |  |
| >32 µg/mL | >32 µg/mL | >32 µg/mL | +++ (+++ = MIC ≦4) | >32 µg/mL | >32 µg/mL | Cn1cc(NC(=O)c2cc(NC(=O)CCNC(=O)c3cc(NC(=O)c4cc(NC(=O)c5ccc(Br)s5)cn4C)cn3C)cn2C)cc1C(=O)NCCC(=O)NCC(C)(C)CN [Id-20] |  |
|  | +++ (+++ = MIC ≦4) | >32 µg/mL | +++ (+++ = MIC ≦4) | +++ (+++ = MIC ≦4) | >32 µg/mL | Cn1cc(NC(=O)c2cc(NC(=O)c3cc(NC(=O)c4cc(NC(=O)c5sccc5Cl)cn4C)cn3C)cn2C)cc1C(=O)NCCN1CCOCC1 [Ie-12] |  |
|  | +++ (+++ = MIC ≦4) | >32 µg/mL | +++ (+++ = MIC ≦4) | +++ (+++ = MIC ≦4) | >32 µg/mL | Cn1cc(NC(=O)c2cc(NC(=O)c3cc(NC(=O)c4scc(Br)c4Cl)cn3C)cn2C)cc1C(=O)NCCN1CCSCC1 [Ie-14] |  |
|  | +++ (+++ = MIC ≦4) | + (+ = MIC from 12 to 32, inclusive) | +++ (+++ = MIC ≦4) | +++ (+++ = MIC ≦4) | + (+ = MIC from 12 to 32, inclusive) | Cn1cc(NC(=O)c2cc(NC(=O)c3cc(NC(=O)c4scc(Br)c4Cl)cn3C)cn2C)cc1C(=O)NCCN1CCCCC1 [Ie-15] |  |

Source: US20060287247A1, “Halogen-substituted thienyl compounds” (priority 2001, published 2006)
